According to patent US10251915B2, “Co-encapsulation of live cells with oxygen-generating particles” (Wake Forest University Health Sciences, priority 2011, dated 2019):
“Also recorded” adds a separate entry of the source.

Legend:
[1] = Oxygen release (dissolved oxygen) from POGS encapsulated in alginate microbeads in a hypoxic chamber; type: physicochemical; details: for duration of oxygen release from alginate microbeads containing MgO2 in the presence of antioxidant: 2.5% MPO in alginate microcapsules, 100 U/ml catalase, 1.5 mM Trolox, compared to MPO alone
Source text: FIG. 1: Comparison of CaO2 and MgO2 release over six days, dissolved oxygen readings are an average of 5 sample groups with 1500 microcapsules each; measurements were taken in a hypoxic chamber.
FIG. 2: Effect of antioxidants on oxygen release from alginate microcapsules with 2.5% MPO.
Comparison of CPO and MPO: We first examined the oxygen release profiles of two POGS, CPO and MPO encapsulated in alginate microbeads in the absence or presence of catalase (100 U/ml), and the antioxidant, Trolox (1.5 mM). Sieves were used to select both MPO and CPO particles equal to and less than 25 μm in diameter. Then 0.5% by weight solution of 1.5% LVM and either CPO or MPO were prepared respectively. These solutions were then extruded through an encapsulating device forming microspheres measuring […] in diameter, which were allowed to crosslink for 15 minutes in 1.1% CaCl2 solution. After cross-linking, the microbeads were rinsed with HBSS and placed into 50 ml conical tubes (BD, USA) containing 20 mL ultra pure water with 10 mM HEPES (pH=7.4). Tubes were placed in a 1% oxygen environment in a hypoxic glovebox system (Biospherix, USA) with the caps of the tubes removed allowing for gas exchange. Dissolved oxygen readings were taken every 24 hours for 6 days using an Orion 4-star DO Probe (Thermo Science).
Oxygen release from MPO Alginate Capsules: On the basis of a better release profile, we then selected MgO2 for further studies. First the release profiles of various concentrations of MPO were measured. Using the same technique as described above 0%, 0.25%, 0.5%, 1%, 1.5%, 2.0%, 2.5%, 5%, 10%, 20%, 30%, and 40% (by weight) solutions of MPO in 1.5% UP LVM were prepared, with particles larger than 25 μM sieved out of the solution prior to encapsulation. […] Dissolved oxygen levels were measured for up to 250 hours. Using the same methodology we then assessed the effect of the antioxidants, Catalase and Trolox, on oxygen release. […] Capsules were prepared and dissolved oxygen levels were measured as described earlier. […] Dissolved oxygen levels were measured for up to 250 hours.

Isolated human islets = assay: MTS viability assay of islets co-cultured with MPO and antioxidants; type: cell-based
Description: FIG. 4: Viability of islets co-cultured with MPO and antioxidants. Isolated human islets were co-cultured with 10 mM MPO for 2 days in normal culture conditions with the following antioxidants: 100 Units/mL Catalase, 1.5 mM Trolox and 30 μM MnTE-2-Pyp. After the two day culture period islet viabilty was determined with an MTS assay. Error bars represent standard deviation, n=5.
Previous studies have shown that the isolation process predisposes islets to subsequent damage and functional impairment and that an SOD mimicking catalytic antioxidant, MnTE-2-PyP (also called AEOL10113), developed by Drs.

[2] = test system: islet cell functional mass; details: used in the isolation or culture medium; cited from earlier work

Molecule: Cc1c(C)c2c(c(C)c1O)CCC(C)(C(=O)O)O2 (stereo not shown) [Trolox, 6-hydroxy-2,5,7,8-tetramethylchroman-2-carboxylic acid]
- duration of oxygen release from alginate microbeads containing MgO2 in the presence of antioxidant [1]: this effect is not observed; also recorded: no significant change

Molecule: CC[n+]1ccccc1-c1c2nc(c(-c3cccc[n+]3CC)c3ccc([n-]3)c(-c3cccc[n+]3CC)c3nc(c(-c4cccc[n+]4CC)c4ccc1[n-]4)C=C3)C=C2.[Mn+3] [MnTE-2-PyP, Mn (III) tetrakis (N-ethylpyridinium-2-yl) porphyrin]
- effect on viability of islets co-cultured with MPO (Isolated human islets; 10 mM MPO, 30 μM MnTE-2-Pyp, 2 days normal culture): counteracts the diminishing effect of MPO on islet viability
- viability of isolated human islets (Isolated human islets; added to islets in normal culture, 30 μM MnTE-2-Pyp, 2 days, n=5): significantly (p<0.05) enhances the viability
- preservation of islet cell functional mass [2]: beneficial in preserving islet cell functional mass

Molecule: [Mg+2].[O-][O-] [MPO, Magnesium Peroxide]
- release of oxygen ([1]; 0.5% by weight CPO or MPO in 1.5% LVM alginate microbeads, 1% oxygen environment, readings every 24 hours for 6 days): higher release of oxygen for up to five days compared to CPO
- effect of MPO on islet viability (Isolated human islets; 10 mM MPO, 2 days normal culture): diminishing effect

B1: catalase: Catalase (from bovine liver), peroxide decomposition catalyst (protein, UniProt P00432 2-527, looked up)
Catalase: ADNRDPASDQMKHWKEQRAAQKPDVLTTGGGNPVGDKLNSLTVGPRGPLLVQDVVFTDEMAHFDRERIPERVVHAKGAGAFGYFEVTHDITRYSKAKVFEHIGKRTPIAVRFSTVAGESGSADTVRDPRGFAVKFYTEDGNWDLVGNNTPIFFIRDALLFPSFIHSQKRNPQTHLKDPDMVWDFWSLRPESLHQVSFLFSDRGIPDGHRHMNGYGSHTFKLVNANGEAVYCKFHYKTDQGIKNLSVEDAARLAHEDPDYGLRDLFNAIATGNYPSWTLYIQVMTFSEAEIFPFNPFDLTKVWPHGDYPLIPVGKLVLNRNPVNYFAEVEQLAFDPSNMPPGIEPSPDKMLQGRLFAYPDTHRHRLGPNYLQIPVNCPYRARVANYQRDGPMCMMDNQGGAPNYYPNSFSAPEHQPSALEHRTHFSGDVQRFNSANDDNVTQVRTFYLKVLNEEQRKRLCENIAGHLKDAQLFIQKKAVKNFSDVHPEYGSRIQALLDKYNEEKPKNAVHTYVQHGSHLSAREKANL
- duration of oxygen release from alginate microbeads containing MgO2 in the presence of antioxidant [1]: significantly shortened
